From article PMC7060258 (Scientific Reports, 2020)
No end group written: not given here.

Experiments:
rKv1.5 = experiment: Two-electrode voltage clamp, rKv1.5 in X. laevis oocytes; format: cell-based; conditions: 10 μM, 18–22 °C, n ≥ 3
Description: (§1) For the expression of the voltage-gated potassium channels (rKv1.1, rKv1.2, hKv1.3, rKv1.4, rKv1.5, rKv1.6, Shaker IR and hERG) in X. laevis oocytes, the linearized plasmids were transcribed using the T7 or SP6 mMESSAGE-mMACHINE transcription kit (Ambion, USA). The harvesting of stage V–VI oocytes from an anaesthetized female X. laevis frog was previously described. Oocytes were injected with 50 nl of cRNA at a concentration of 1 ng/nl using a micro-injector (Drummond Scientific, USA). The oocytes were incubated in a solution containing (in mM): NaCl, 96; KCl, 2; CaCl2, 1.8; MgCl2, 2; HEPES, 5 (pH 7.4), supplemented with 50 mg/l gentamycin sulfate.
(§2) Two-electrode voltage-clamp recordings were performed at room temperature (18–22 °C) using a Geneclamp 500 amplifier (Molecular Devices, USA) controlled by a pClamp data acquisition system (Axon Instruments, USA), as described in[47]. Whole cell currents from oocytes were recorded 1–4 days after injection. Bath solution composition was ND96 (in mM): NaCl, 96; KCl, 2; CaCl2, 1.8; MgCl2, 2 and HEPES, 5 (pH 7.4). Voltage and current electrodes were filled with 3 M KCl. The resistances of both electrodes were kept between 0.7 and 1.5 MΩ. […] All data were analysed using pClamp Clampfit 10.0 (Molecular Devices, Downingtown, PA, USA) and Origin 7.5 software (Originlab, Northampton, MA, USA).

hERG = experiment: Two-electrode voltage clamp, hERG in X. laevis oocytes; format: cell-based; conditions: 10 μM, 18–22 °C, n ≥ 3
Description: as §1, §2

pancreatic kallikrein = experiment: SPR interaction with pancreatic kallikrein; format: binding; conditions: for SPR binding to kallikrein (in words): peptide immobilized on CM4 chip
Description: (§3) The interaction of the peptides with serine proteinases (trypsin, α-chymotrypsin, human neutrophil elastase, pancreatic kallikrein and cathepsin G) was studied using the surface plasmon resonance (SPR) method. The peptides were immobilized on a CM4 sensor chip. […] Kinetic parameters were calculated at 25 °C. Obtained data indicated the formation of tight complexes and eliminated non-specific binding (Table 2).
(§4) The study of the interaction of serine proteinases with rHCIQ2c1 and rHCIQ4c7 was performed on SPR biosensor Biacore 3000 (GE Healthcare, USA) running under the program “Biacore 3000 Control Software v.1.0”. The evaluation of data was carried out using “Biacore Evaluation v.4.1”. Peptides were covalent immobilized on carboxymethylated surface of the Biacore CM4 sensor chip (GE Healthcare, USA) activated by EDC/NHS (N-hydroxysuccinimide/1-ethyl-3-(3-dimethylaminopropyl)carbodiimide hydrochloride) mixture by the injection of peptide solution (100 µg/ml) in 10 mM sodium acetate (pH 5.5) during 10 min with flow rate 5 µl/min. Quantities of immobilized peptides were 970 RU (resonance units, 1 RU corresponds 1 pg peptide) for rHCIQ2c1 and 460 RU for rHCIQ4c7. In all of the experiments, the flow cell 1 (Fc1) without the immobilized polypeptides was considered as the reference cell for the correction of the signal responses. HBS (HEPES buffered saline-NaCl): 0.15 M NaCl, 0.01 M HEPES, pH 7.4 (cat. no. BR-1003-69, GE Healthcare, USA) was used as the running buffer for the SPR assays. Protease solutions at concentrations from 1 nM to 5 μM were passed through measuring and control biosensor cells at 25 °C during 5 min with a flow rate 5 µl/min. Further complex breakdown was recorded during at most 10 min. After each cycle of SPR measurement, the sensing surface was regenerated by the injection of 50 mM NaOH for 0.5 min at a flow rate of 50 μl/min. Changes in Gibbs free energy (ΔG) at 25 °C were calculated by the following equation:1 ΔG=RTlnKD, where KD is the dissociation constant. Changes in enthalpy (ΔH) and entropic term (−TΔS) were calculated from the linear equation:2 ΔG=ΔH−TΔS, using the liner approximation of temperature dependence of ΔG (Van’t Hoff diagram).

trypsin = experiment: SPR interaction with trypsin; format: binding; conditions: for SPR binding to trypsin (in words): peptide immobilized on CM4 chip; for ka, association rate constant / kd, dissociation rate constant: protease 1 nM to 5 μM; for Kd: read-out: KD, dissociation constant
Description: as §3, §4

[1] = tested on: murine neuroblastoma Neuro2a cells; experiment: 6-OHDA-induced cytotoxicity, cell viability (MTT); format: cell-based; conditions: for Increase of cell viability relative to cells treated with 6-OHDA: 10 μM peptide, 30 min before 6-OHDA 25 µM, mean of three independent experiments
Description: Effects of rHCIQ2c1 and rHCIQ4c7 were studied using murine neuroblastoma Neuro2a cells in the presence of 6-OHDA (25 µM). After incubation of Neuro2a cells with recombinant peptides and 6-OHDA for 24 h, the cell viability was evaluated using MTT assay.
The cytoprotective activities of peptides was examined, as described previously. Neuro2a murine neuroblastoma cells (ATCC CCL-131) (American Type Culture Collection, Virginia, USA) were cultivated in DMEM medium (BioloT, Russia) with 10% of fetal bovine serum (FBS, BioloT, Russia) and 80 µg/ml gentamicine (BioloT, Russia). The cells were seeded onto 96-well plate at concentration of 1 × 10^3 cells per well. Substances were added at different concentrations, and then cells were incubated for 30 min at 37 °C and 5% CO2. Cells were treated with 6-OHDA (25 μM) for 24 h at 37 °C with 5% CO2. Thereafter, medium was replaced with clean serum-free medium, and cells were treated with 3-(4,5-dimethylthiazol-2-yl)-2,5-diphenyltetrazolium bromide (MTT) for 4 h[77]. Then the medium was collected and whole cells were lysed in 100% dimethylsulfoxide (DMSO), the absorbance was measured at 570 nm using Multiscan FC (Thermo Fisher Scientific, USA). […] The results were expressed as the mean ± SD of three independent experiments.

rKv1.2 = experiment: Two-electrode voltage clamp, rKv1.2 in X. laevis oocytes; format: cell-based; conditions: 10 μM, 18–22 °C, n ≥ 3
Description: as §1, §2

rKv1.1 = experiment: Two-electrode voltage clamp, rKv1.1 in X. laevis oocytes; format: cell-based; conditions: 10 μM, 18–22 °C, n ≥ 3
Description: as §1, §2

hKv1.3 = experiment: Two-electrode voltage clamp, hKv1.3 in X. laevis oocytes; format: cell-based; conditions: 10 μM, 18–22 °C, n ≥ 3
Description: as §1, §2

rKv1.4 = experiment: Two-electrode voltage clamp, rKv1.4 in X. laevis oocytes; format: cell-based; conditions: 10 μM, 18–22 °C, n ≥ 3
Description: as §1, §2

[2] = kallikrein, SPR Biacore 3000, peptide immobilized on CM4 chip, HBS pH 7.4, 25 °C, protease 1 nM to 5 μM
[3] = trypsin, SPR Biacore 3000, peptide immobilized on CM4 chip, HBS pH 7.4, 25 °C

| Substance | Activity on Kv1.5 (rKv1.5) | Activity on hERG (hERG) | SPR binding to kallikrein (in words) (pancreatic kallikrein) | SPR binding to trypsin (in words) (trypsin; SPR) | ka, association rate constant (trypsin; [3]) [s/M] | kd, dissociation rate constant (trypsin; [3]) [s⁻¹] | Kd (trypsin; [3]) [nM] | Increase of cell viability relative to cells treated with 6-OHDA ([1]; 24 h, MTT) [%] | Toxicity to Neuro2a cells ([1]; 10 μM, MTT) | Activity on Kv1.2 (rKv1.2) | Activity on Kv1.1 (rKv1.1) | Activity on Kv1.3 (hKv1.3) | Activity on Kv1.4 (rKv1.4) | other results |
| --- | --- | --- | --- | --- | --- | --- | --- | --- | --- | --- | --- | --- | --- | --- |
| rHCIQ2c1: recombinant Kunitz-peptide of Heteractis crispa, most prevalent isoform, mature peptide 58 aa, expressed in E. coli (IQGNICSEPKKVGRCRGSFPRFYFDSETGKCTPFIYGGCGGNGNNFETLHACRAICRA; ends and bridges not checked; cysteine pairing not given here) | neither 10 μM of rHCIQ2c1 nor rHCIQ4c7 exerted any activity on the Kv channels | neither 10 μM of rHCIQ2c1 nor rHCIQ4c7 exerted any activity on the Kv channels | specifically binds to all target proteinases | specifically binds to all target proteinases | 20500 | 0.00817 | 0.251 | 47 | non-toxic | neither 10 μM of rHCIQ2c1 nor rHCIQ4c7 exerted any activity on the Kv channels | neither 10 μM of rHCIQ2c1 nor rHCIQ4c7 exerted any activity on the Kv channels | neither 10 μM of rHCIQ2c1 nor rHCIQ4c7 exerted any activity on the Kv channels | neither 10 μM of rHCIQ2c1 nor rHCIQ4c7 exerted any activity on the Kv channels | KA, association constant (pancreatic kallikrein; kallikrein, SPR Biacore 3000, peptide immobilized on CM4 chip, HBS pH 7.4, 25 °C): 2.04e+06 M⁻¹; ka, association rate constant (pancreatic kallikrein; [2]): 49400 s/M; kd, dissociation rate constant (pancreatic kallikrein; [2]): 0.00379 s⁻¹; Significance of effect on viability of 6-OHDA-treated cells ([1]; 10 μM, 6-OHDA 25 µM, 24 h, * p < 0.05): The reliable effect was revealed; Concentration of maximum cytoprotective activity ([1]; 6-OHDA 25 µM, 24 h, MTT): 10 µM; Dose-response of cytoprotective effect ([1]; 6-OHDA 25 µM, 24 h, MTT): linear dose-dependent character |
| rHCIQ4c7: recombinant Kunitz-peptide of Heteractis crispa, isoform with the rare substitution Gly17Glu | neither 10 μM of rHCIQ2c1 nor rHCIQ4c7 exerted any activity on the Kv channels | neither 10 μM of rHCIQ2c1 nor rHCIQ4c7 exerted any activity on the Kv channels | bounds to trypsin and elastase only | bounds to trypsin and elastase only | 22500 | 0.00466 | 207 | 14 | non-toxic | neither 10 μM of rHCIQ2c1 nor rHCIQ4c7 exerted any activity on the Kv channels | neither 10 μM of rHCIQ2c1 nor rHCIQ4c7 exerted any activity on the Kv channels | neither 10 μM of rHCIQ2c1 nor rHCIQ4c7 exerted any activity on the Kv channels | neither 10 μM of rHCIQ2c1 nor rHCIQ4c7 exerted any activity on the Kv channels | KD with trypsin relative to rHCIQ2c1 (trypsin; SPR, 25 °C): higher by three orders than for rHCIQ2c1; KA, association constant (trypsin; [3]): 4.83e+06 M⁻¹ |
